Test results reported in PubChem BioAssay (NCI).
Values joined by “and” are separate entries in the source; they are usually repeats but may differ in a detail not shown here. Equal entries are not always repeated.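 Cells were grown in 96-well plates and exposed to each compound for 48 hours at five concentrations; endpoints were interpolated linearly between bracketing concentrations, or set to the highest concentration if not reached. GI50 is the concentration that inhibits growth by half. TGI denotes the concentration required for complete inhibition of growth.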

What was measured:
Assay in all cases: inhibition of tumour cell growth, NCI panel, 48 h
[1] = test system: HCT-116 colon
[2] = test system: HS 578T breast
[3] = test system: MDA-MB-231 breast
[4] = test system: SF-539 CNS
[5] = test system: MCF7 breast
[6] = test system: UACC-62 melanoma
[7] = test system: LOX IMVI melanoma
[8] = test system: SK-MEL-5 melanoma
[9] = test system: COLO 205 colon
[10] = test system: SNB-19 CNS

SMILES | GI50 [1] | TGI [1] | GI50 [2] | TGI [2] | GI50 [3] | TGI [3] | GI50 [4] | TGI [4] | GI50 [5] | TGI [5] | GI50 [6] | TGI [6] | GI50 [7] | TGI [7] | GI50 [8] | TGI [8] | GI50 [9] | TGI [9] | GI50 [10] | TGI [10]
O=C(Oc1cccc(Nc2ncnc3ccccc23)c1)c1ccccc1Cl | 14.7 µM | 33 µM | 19.1 µM | 48.1 µM | 14.3 µM | 36 µM | 30.5 µM | 88.9 µM | 11.7 µM | 37.1 µM | 22.5 µM | 80.6 µM | 15.8 µM | 36.2 µM | 14.6 µM | 28.2 µM | 24 µM | > 100 µM | 52.7 µM | > 100 µM
O=C1C(Cl)=C(Oc2ccccc2)C(=O)c2ccccc21 | 1.82 µM | 3.41 µM | 2.62 µM | 13 µM | 6.51 µM | 21.1 µM | 5.96 µM | 14.2 µM | 7.3 µM | 25.2 µM | 3.46 µM | 11.7 µM | 9.98 µM | 22.7 µM | 6.26 µM | 17.1 µM | 1.68 µM | 3.24 µM | 4.11 µM | 17.4 µM
O=C1NC(=O)[C@@H](c2cn3c4c(cccc24)CCC3)[C@@H]1c1c[nH]c2ccccc12 | 0.377 µM and 0.458 µM | > 6.16 µM and 10.6 µM | 0.343 µM and 0.323 µM | > 10 µM and 20.9 µM | 0.632 µM and 1.19 µM | 8.12 µM and 9.86 µM | 0.319 µM and 0.337 µM | 2.39 µM and 5.25 µM | 0.246 µM and 0.331 µM | > 10 µM and 12.8 µM | 0.443 µM and 0.51 µM | > 10 µM and 18.3 µM | 0.601 µM and 0.67 µM | > 10 µM and 14.8 µM | 0.266 µM and 0.289 µM | 1.36 µM and 3.07 µM | 0.273 µM and 0.326 µM | 0.973 µM and 1.14 µM | 0.466 µM and 0.601 µM | > 10 µM and 22.6 µM
COc1c(O)cc2oc3cc(O)c(CC=C(C)C)c(O)c3c(=O)c2c1C/C=C(\C)CCC=C(C)C | 5.24 µM | 10.4 µM | 7.11 µM | 16.7 µM | 5.61 µM | 11.2 µM | 6.11 µM | 12 µM | 6.15 µM | 13.7 µM | 5.51 µM | 11.3 µM | 5.49 µM | 10.5 µM | 5.62 µM | 10.2 µM | 6.37 µM | 11.4 µM | 6.51 µM | 12 µM
COc1ccc(/C=C(\C#N)n2nnc3cc(Cl)ccc32)cc1 | 0.412 µM | 26.2 µM | 2.55 µM | 9.37 µM | 1.09 µM | 10.2 µM | 1.25 µM | 3.5 µM | 0.375 µM | > 33.3 µM | 0.382 µM | 9.66 µM | 0.887 µM | 9.4 µM | 2.36 µM | 10.6 µM | 0.513 µM | 7.01 µM | 1.12 µM | > 41.4 µM
O=C(CCl)Nc1ccccc1SCc1cc(Cl)cc2c1OCOC2 | 4.64 µM | 16.8 µM | 6.25 µM | 38.9 µM | 5.97 µM | 28 µM | 15.3 µM | 28.7 µM | 3.41 µM | 15.4 µM | 5.44 µM | 19.9 µM | 2.16 µM | 5.1 µM | 4.09 µM | 16.4 µM | 17.3 µM | 35.5 µM | 14.1 µM | 28.9 µM
CCNCCNc1cc(-c2ccc(Cl)cc2)c(C#N)c2nc3ccccc3n12 | 1.27 µM | 2.59 µM | 2.2 µM | 4.68 µM | 1.92 µM | 3.58 µM | 1.72 µM | 3.22 µM | 1.37 µM | 3.05 µM | 1.85 µM | 3.65 µM | 1.52 µM | 2.93 µM | 1.7 µM | 3.11 µM | 1.46 µM | 3.27 µM | 1.84 µM | 3.64 µM
CS(=O)(=O)c1ccc(Oc2nccc(-c3c(-c4ccc(F)cc4)ncn3C3CCNCC3)n2)cc1 | > 25 µM | > 25 µM | > 25 µM | > 25 µM | > 25 µM | > 25 µM | > 25 µM | > 25 µM | > 25 µM | > 25 µM | > 25 µM | > 25 µM | > 25 µM | > 25 µM | > 25 µM | > 25 µM | > 25 µM | > 25 µM | > 25 µM | > 25 µM
COc1ccc(-n2c(-c3ccc(NC(=O)CCCl)cc3)nnc2-c2cc(OC)c(OC)c(OC)c2)cc1 | 2.81 µM | 8.54 µM | 3.89 µM | 12.6 µM | 3.56 µM | > 14.3 µM | 3.04 µM | 10.3 µM | 3.15 µM | > 14.3 µM | 2.54 µM | 6.92 µM | 4.28 µM | > 14.3 µM | 3.46 µM | 10.3 µM | 2.02 µM | 4.75 µM | 4.33 µM | > 14.3 µM
CC(=O)C(C(=N)C#N)C(=O)Nc1ccccc1 (stereo not given) |  | > 100 µM |  | > 100 µM |  | > 100 µM |  | > 100 µM |  | > 100 µM |  | > 100 µM |  | > 100 µM |  | > 100 µM |  | > 100 µM |  | > 100 µM
